Laboratory results as given in patent US8546440B2, “Substituted bicyclic imidazole derivatives as gamma secretase modulators” (Janssen Pharmaceuticals, Inc., priority 2008, dated 2013).

Assays:
Aβtotal = assay: Screening for γ-secretase-modulating activity, Method 1: Aβtotal sandwich ELISA in supernatant of SKNBE2 cells carrying APP 695 wild type (Tables 12a, 12b); type: cell-based
Procedure: (§1) Screening was carried out using SKNBE2 cells carrying the APP 695—wild type, grown in Dulbecco's Modified Eagle's Medium/Nutrient mixture F-12 (DMEM/NUT-mix F-12) (HAM) provided by Gibco (cat no. 31330-38) containing 5% Serum/Fe supplemented with 1% non-essential amino acids. Cells were grown to near confluency.
(§2) The screening was performed using the assay as described in Citron et al (1997) Nature Medicine 3: 67. Briefly, cells were plated in a 96-well plate at about 10^5 cells/ml one day prior to addition of compounds. Compounds were added to the cells in Ultraculture (Lonza, BE12-725F) supplemented with 1% glutamine (Invitrogen, 25030-024) for 18 hours. The media were assayed by two sandwich ELISAs, for Aβ42 and Aβtotal. Toxicity of the compounds was assayed by WST-1 cell proliferation reagent (Roche, 1 644 807) according to the manufacturer's protocol.
To quantify the amount of Aβtotal in the cell supernatant, samples and standards were added to a 6E10-coated plate. The plate was allowed to incubate overnight at 4° C. in order to allow formation of the antibody-amyloid complex. Following this incubation and subsequent wash steps a selective anti-Aβ-antibody conjugate (biotinylated 4G8) was added and incubated for a minimum of 1 hour in order to allow formation of the antibody-Amyloid-antibody-complex. After incubation and appropriate wash steps, a Streptavidine-Peroxidase-Conjugate was added, followed 30 minutes later by an addition of Quanta Blu fluorogenic peroxidase substrate according to the manufacturer's instructions (Pierce Corp., Rockford, Ill.).
(§3) To obtain the values reported in Table 12a, the sigmoidal dose response curves were analysed by computerised curve-fitting, with percent of inhibition plotted against compound concentration. A 4-parameter equation (model 205) in XLfit was used to determine the IC50. The top and the bottom of the curve were fixed to 100 and 0, respectively, and the hill slope was fixed to 1. The IC50 represents the concentration of a compound that is required for inhibiting a biological effect by 50% (Here, it is the concentration where Aβ peptide level is reduced by 50%).
(§4) To obtain the values reported in Table 12b, the data are calculated as percentage of the maximum amount of amyloid Beta 42 measured in the absence of the test compound. The sigmoidal dose response curves were analyzed using non-linear regression analysis with percentage of the control plotted against the log concentration of the compound. A 4-parameter equation was used to determine the IC50. The values reported in Table 12b are averaged IC50 values.

Aβ42 = assay: Screening for γ-secretase-modulating activity, Method 1: Aβ42 sandwich ELISA in supernatant of SKNBE2 cells carrying APP 695 wild type (Tables 12a, 12b); type: cell-based
Procedure: as §1, §2
To quantify the amount of Aβ42 in the cell supernatant, commercially available Enzyme-Linked-Immunosorbent-Assay (ELISA) kits were used (Innotest® β-Amyloid(1-42), Innogenetics N.V., Ghent, Belgium). The Aβ42 ELISA was performed essentially according to the manufacturer's protocol. Briefly, the standards (dilutions of synthetic Aβ1-42) were prepared in polypropylene Eppendorf with final concentrations of 8000 down to 3.9 pg/ml (1/2 dilution step). Samples, standards and blanks (100 μl) were added to the anti-Aβ42-coated plate supplied with the kit (the capture antibody selectively recognizes the C-terminal end of the antigen). The plate was allowed to incubate 3 h at 25° C. in order to allow formation of the antibody-amyloid complex. Following this incubation and subsequent wash steps a selective anti-Aβ-antibody conjugate (biotinylated 3D6) was added and incubated for a minimum of 1 hour in order to allow formation of the antibody-Amyloid-antibody-complex. After incubation and appropriate wash steps, a Streptavidine-Peroxidase-Conjugate was added, followed 30 minutes later by an addition of 3,3′,5,5′-tetramethylbenzidine (TMB)/peroxide mixture, resulting in the conversion of the substrate into a coloured product. This reaction was stopped by the addition of sulfuric acid (0.9 N) and the colour intensity was measured by means of photometry with an ELISA-reader with a 450 nm filter.
as §3, §4

[1] = Homo sapiens, Method 1, Table 12a, SKNBE2 cells carrying APP 695 wild type, compounds 18 hours, ELISA, curve top and bottom fixed to 100 and 0, hill slope 1
[2] = Homo sapiens, Table 12b, Method 1, SKNBE2 cells carrying APP 695 wild type, cell supernatant ELISA, averaged IC50 values
[3] = Homo sapiens, Table 12b, Method 1, SKNBE2 cells carrying APP 695 wild type, cell supernatant ELISA, averaged IC50 values, percentage of control vs log concentration
[4] = Table 12b, Method 1, SKNBE2 cells carrying APP 695 wild type, cell supernatant ELISA, averaged IC50 values
[5] = Table 12b, Method 1, SKNBE2 cells carrying APP 695 wild type, cell supernatant ELISA, averaged IC50 values, percentage of control vs log concentration
[6] = Method 1, Table 12a, SKNBE2 cells carrying APP 695 wild type, compounds 18 hours, ELISA, curve top and bottom fixed to 100 and 0, hill slope 1

| SMILES | IC50 (Aβtotal; [1]) [µM] | IC50 (Aβtotal; [2]) [µM] | IC50 (Aβ42; [1]) [nM] | IC50 (Aβ42; [3]) [nM] | IC50 (Aβtotal; [4]) [µM] | IC50 (Aβ42; [5]) [nM] | IC50 (Aβtotal; [6]) [µM] | IC50 (Aβ42; [6]) [nM] |
| --- | --- | --- | --- | --- | --- | --- | --- | --- |
| COc1cc(Nc2cccn3c(Br)c(-c4ccc(F)cc4)nc23)ccc1-n1cnc(C)c1 [Compound 22] | > 3 | > 3.02 | 113 | 112 |  |  |  |  |
| Cc1ncn(-c2ccc(Nc3cccn4cc(-c5ccccc5C)nc34)nc2)n1 [Compound 82] |  |  |  |  | > 3.02 | 562 |  |  |
| COc1cccc(-c2nc3c(Nc4ccc(-n5cnc(C)n5)c(OC)c4)cccn3c2C)c1 [Compound 67] | > 3 | > 3.02 | 51 | 40 |  |  |  |  |
| COc1cc(Nc2cccn3cc(-c4ccccn4)nc23)ccc1-n1cnc(C)c1 [Compound 41] | 8.54 | 7.41 | 344 | 363 |  |  |  |  |
| COc1cc(Nc2cccn3cc(-c4ccccc4C(F)(F)F)nc23)ccc1-n1cnc(C)c1 [Compound 47] | > 3 | > 3.02 | 31 | 31 |  |  |  |  |
| COc1cc(Nc2cccn3cc(-c4ccccc4)nc23)ccc1-n1cnc(C)c1 [Compound 12] | > 3 | > 3.02 | 64 | 55 |  |  |  |  |
| COc1cc(Nc2cccn3cc(C)nc23)ccc1-n1cnc(C)n1 [Compound 77] | > 10 | > 10 | 2690 | 4360 |  |  |  |  |
| COc1ccc(-c2cn3cccc(Nc4ccc(-n5cnc(C)c5)c(OC)c4)c3n2)cc1 [Compound 36] | > 3 | > 3.02 | 64 | 60 |  |  |  |  |
| COc1cc(Nc2cccn3cc(-c4cccnc4)nc23)ccc1-n1cnc(C)c1 [Compound 42] | > 10 | > 10 | 430 | 427 |  |  |  |  |
| CCCCc1nc2c(Nc3ccc(-n4cnc(C)c4)c(OC)c3)cccn2c1CCC [Compound 11] |  |  |  |  | > 3.02 | 35 | > 3 | 39 |
| COc1cc(Nc2cccn3c(I)c(-c4ccc(F)cc4)nc23)ccc1-n1cnc(C)c1 [Compound 57] | > 1 | > 3.02 | 58 | 51 |  |  |  |  |
| COc1cc(Nc2cccn3cc(-c4ccc(F)cc4C)nc23)ccc1-n1cnc(C)n1 [Compound 89] |  | > 3.02 |  | 85 |  |  |  |  |
| COc1cccc(-c2nc3c(Nc4ccc(-n5cnc(C)c5)c(F)c4)cccn3c2C)c1 [Compound 66] |  |  |  | 76 |  |  |  |  |
| CCCCc1cn2cccc(Nc3ccc(-n4cnc(C)c4)c(OC)c3)c2n1 [Compound 51] |  |  |  |  | > 3.02 | 38 | > 3 | 39 |
| CCc1cn2cc(C(F)(F)F)cc(Nc3ccc(-n4cnc(C)n4)c(OC)c3)c2n1 [Compound 153] |  | > 3.02 |  | 1900 |  |  |  |  |
| COc1cc(Nc2cccn3c(CNC=O)c(-c4cccc(F)c4)nc23)ccc1-n1cnc(C)c1 [Compound 100] |  |  |  |  | > 3.02 | 11 |  |  |
| COc1cc(Nc2cccn3cc(-c4ccccc4F)nc23)ccc1-n1cnc(C)c1 [Compound 88] | > 3 | > 10 | 184 | 174 |  |  |  |  |

| SMILES | IC50 (Aβtotal; [1]) [µM] | IC50 (Aβtotal; [2]) [µM] | IC50 (Aβ42; [1]) [nM] | IC50 (Aβ42; [3]) [nM] | IC50 (Aβtotal; [4]) [µM] | IC50 (Aβ42; [5]) [nM] | IC50 (Aβtotal; [6]) [µM] | IC50 (Aβ42; [6]) [nM] |
| --- | --- | --- | --- | --- | --- | --- | --- | --- |
| COc1cc(Nc2cccn3c(CO)c(-c4ccc(F)cc4)nc23)ccc1-n1cnc(C)c1 [Compound 101] |  | > 1 |  | 13 |  |  |  |  |
| Cc1ncn(-c2ccc(Nc3cccn4cc(-c5ccc(F)cc5C)nc34)cc2F)n1 [Compound 91] |  | 18.6 |  | 72 |  |  |  |  |
| COc1cc(Nc2cccn3cc(-c4ccc(F)cc4)nc23)ccc1-n1ncnc1C [Compound 45] | > 5 | > 5.01 | 232 | 200 |  |  |  |  |
| CCCCc1cn2cccc(Nc3ccc(-n4cnc(C)n4)cc3)c2n1 [Compound 76] |  |  |  |  | > 10 | 1950 |  |  |
| COc1cc(Nc2cccn3cc(-c4ccc(F)cc4F)nc23)ccc1-n1cnc(C)c1 [Compound 25] | > 10 | > 10 | 251 | 240 |  |  |  |  |
| Cc1ncn(-c2ccc(Nc3cccn4cc(-c5cc(C(F)(F)F)ccc5C)nc34)nc2)n1 [Compound 81] |  |  |  |  | > 10 | 380 |  |  |
| CCc1c(-c2ccc(F)cc2)nc2c(Nc3ccc(-n4cnc(C)c4)c(OC)c3)cccn12 [Compound 23] |  |  |  |  | > 3.02 | 22 | > 3 | 25 |
| COc1cc(Nc2cccn3c(Cl)c(CC4CCCCC4)nc23)ccc1-n1cnc(C)c1 [Compound 53] |  | > 3.02 |  | 27 |  |  |  |  |
| COc1cc(Nc2cccn3cc(C(C)(C)C)nc23)ccc1-n1cnc(C)c1 [Compound 9] | > 10 | > 10 | 384 | 282 |  |  |  |  |
| COc1cc(Nc2cc(C(F)(F)F)cn3cc(Cc4ccc(F)cc4)nc23)ccc1-n1cnc(C)n1 [Compound 146] |  |  |  |  | > 3.02 | 32 |  |  |
| COc1cc(Nc2cccn3ccnc23)ccc1-n1cnc(C)c1 [Compound 49] | 10 | > 10 | 305 | 407 |  |  |  |  |
| COc1cc(Nc2cc(C(F)(F)F)nn3cc(C)nc23)ccc1-n1cnc(C)c1 [Compound 164] |  |  |  |  | > 10 | 178 |  |  |
| Cc1ncn(-c2ccc(Nc3cccn4c(C)c(-c5ccccc5Cl)nc34)c(F)c2)n1 [Compound 133] |  | > 3.02 |  | 468 |  |  |  |  |
| COc1cc(Nc2nc(Br)cn3cc(-c4ccc(F)cc4C)nc23)ccc1-n1cnc(C)n1 [Compound 177] |  | > 3.02 |  | 234 |  |  |  |  |
| COc1cc(Nc2cccn3cc(COc4ccc(F)cc4)nc23)ccc1-n1cnc(C)c1 [Compound 28] | > 1 | > 3.02 | 20 | 18 |  |  |  |  |
| COc1cccc(-c2nc3c(Nc4ccc(-n5cnc(C)c5)cc4)cccn3c2C)c1 [Compound 64] | > 3 | > 3.02 | 13 | 17 |  |  |  |  |
